# Tested on: HCV genotype 1b replicon
# Test: HCV replicon assay (1b_Huh-Luc/Neo-ET cell line, luciferase readout)
# Format: cell-based
# Conditions: Hepatitis C virus, Huh-7, 72 h, read-out: Inhibition of HCV genotype 1b
# How it was run: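 1b_Huh-Luc/Neo-ET Huh 7 cells carrying a bicistronic genotype 1b replicon; compounds added in triplicate the day after plating, 72 h incubation, then Bright-Glo luciferase read-out. Signal expressed as % of control; EC50 from curve fit, repeated several times.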
row,SMILES,EC50 [nM]
1,COC(=O)N[C@H](C(=O)N1CCC[C@H]1c1ncc(-c2ccc(-c3nc4ccc(-c5cnc([C@@H]6CCCN6C(=O)[C@@H](NC(=O)OC)C(C)C)[nH]5)cc4s3)cc2)[nH]1)C(C)C [compound 229],< 1
2,COC(=O)N[C@@H](C(=O)N1CCC[C@H]1c1ncc(-c2ccc(-c3nc4ccc(-c5cnc([C@@H]6CCCN6C(=O)[C@H](NC(=O)OC)c6ccccc6)[nH]5)cc4s3)cc2)[nH]1)c1ccccc1 [compound 230],< 1
3,COC(=O)N[C@H](C(=O)N1CCC[C@H]1c1ncc(-c2ccc(-c3nc4ccc(-c5cnc([C@@H]6CCCN6C(=O)[C@@H](NC(=O)OC)C(C)C)[nH]5)cc4n3C)cc2)[nH]1)C(C)C [compound 231],< 1
4,COC(=O)N[C@H](C(=O)N1CCC[C@H]1c1ncc(-c2ccc(-c3nc4cc(-c5cnc([C@@H]6CCCN6C(=O)[C@@H](NC(=O)OC)C(C)C)[nH]5)ccc4n3C)cc2)[nH]1)C(C)C [compound 232],< 1
5,COC(=O)N[C@@H](C(=O)N1CCC[C@H]1c1ncc(-c2ccc(-c3nc4cc(-c5cnc([C@@H]6CCCN6C(=O)[C@H](NC(=O)OC)c6ccccc6)[nH]5)ccc4n3C)cc2)[nH]1)c1ccccc1 [compound 233],< 1
6,COC(=O)N[C@H](C(=O)N1CCC[C@H]1c1ncc(-c2ccc(-c3nc4ccc(-c5cnc([C@@H]6CCCN6C(=O)[C@@H](NC(=O)OC)C(C)C)[nH]5)cc4o3)cc2)[nH]1)C(C)C [compound 234],< 1
7,COC(=O)N[C@@H](C(=O)N1CCC[C@H]1c1ncc(-c2ccc(-c3nc4ccc(-c5cnc([C@@H]6CCCN6C(=O)[C@H](NC(=O)OC)c6ccccc6)[nH]5)cc4o3)cc2)[nH]1)c1ccccc1 [compound 235],< 1
8,COC(=O)N[C@H](C(=O)N1CCC[C@H]1c1ncc(-c2ccc(-c3nc4cc(-c5cnc([C@@H]6CCCN6C(=O)[C@@H](NC(=O)OC)C(C)C)[nH]5)ccc4o3)cc2)[nH]1)C(C)C [compound 236],< 1
9,COC(=O)N[C@@H](C(=O)N1CCC[C@H]1c1ncc(-c2ccc(-c3nc4cc(-c5cnc([C@@H]6CCCN6C(=O)[C@H](NC(=O)OC)c6ccccc6)[nH]5)ccc4o3)cc2)[nH]1)c1ccccc1 [compound 237],< 1
10,COC(=O)N[C@H](C(=O)N1CCC[C@H]1c1ncc(-c2ccc(-c3nc4cc(-c5cnc([C@@H]6CCCN6C(=O)[C@@H](NC(=O)OC)[C@@H](C)OC)[nH]5)ccc4o3)cc2)[nH]1)[C@@H](C)OC [compound 238],< 1
11,COC(=O)N[C@H](C(=O)N1CCC[C@H]1c1ncc(-c2ccc(-c3nc4cc(-c5cnc([C@@H]6CCCN6C(=O)[C@@H](NC(=O)OC)C6CC6)[nH]5)ccc4o3)cc2)[nH]1)C1CC1 [compound 239],< 1
12,COC(=O)N[C@H](C(=O)N1CCC[C@H]1c1ncc(-c2ccc(-c3nc4cc(-c5cnc([C@@H]6CCCN6C(=O)[C@@H](NC(=O)OC)C(C)C)[nH]5)ccc4s3)cc2)[nH]1)C(C)C [compound 240],< 1
13,COC(=O)N[C@H](C(=O)N1CCC[C@H]1c1ncc(-c2ccc(-c3nc4ccc(-c5cnc([C@@H]6CCCN6C(=O)[C@H](NC(=O)OC)c6ccccc6)[nH]5)cc4s3)cc2)[nH]1)C(C)C [compound 241],< 1
14,COC(=O)N[C@H](C(=O)N1CCC[C@H]1c1ncc(-c2ccc(-c3nc4ccc(-c5cnc([C@@H]6CCCN6C(=O)[C@H](NC(=O)OC(C)(C)C)c6ccccc6)[nH]5)cc4s3)cc2)[nH]1)C(C)C [compound 242],< 1
15,COC(=O)N[C@H](C(=O)N1CCCC[C@H]1c1ncc(-c2ccc(-c3nc4ccc(-c5cnc([C@@H]6CCCCN6C(=O)[C@@H](NC(=O)OC)C(C)C)[nH]5)cc4s3)cc2)[nH]1)C(C)C [compound 243],< 1
16,CCNC(=O)N[C@@H](C(=O)N1CCC[C@H]1c1ncc(-c2ccc3nc(-c4ccc(-c5cnc([C@@H]6CCCN6C(=O)[C@@H](NC(=O)OC)C(C)C)[nH]5)cc4)sc3c2)[nH]1)c1ccccc1 [compound 244],< 1
17,CNC(=O)N[C@@H](C(=O)N1CCC[C@H]1c1ncc(-c2ccc3nc(-c4ccc(-c5cnc([C@@H]6CCCN6C(=O)[C@@H](NC(=O)OC)C(C)C)[nH]5)cc4)sc3c2)[nH]1)c1ccccc1 [compound 245],< 1
18,COC(=O)N[C@H](C(=O)N1CCC[C@H]1c1ncc(-c2ccc(-c3nc4ccc(-c5cnc([C@@H]6CCCN6C(=O)OCc6ccccc6)[nH]5)cc4s3)cc2)[nH]1)C(C)C [compound 246],< 1
19,COC(=O)N[C@H](C(=O)N1CCC[C@H]1c1ncc(-c2ccc(-c3nc4ccc(-c5cnc([C@@H]6CCCN6C(=O)[C@H](NC(=O)OC(C)(C)C)c6ccccc6)[nH]5)cc4o3)cc2)[nH]1)C(C)C [compound 247],< 1
20,COC(=O)N[C@@H](C(=O)N1CCCC[C@H]1c1ncc(-c2ccc(-c3nc4ccc(-c5cnc([C@@H]6CCCCN6C(=O)[C@H](NC(=O)OC)c6ccccc6)[nH]5)cc4s3)cc2)[nH]1)c1ccccc1 [compound 248],< 1
21,COC(=O)N[C@H](C(=O)N1CCC[C@H]1c1ncc(-c2ccc(-c3nc4ccc(-c5cnc([C@@H]6CCCN6C(=O)[C@H](NC(=O)OC)c6ccccc6)[nH]5)cc4o3)cc2)[nH]1)C(C)C [compound 249],< 1
22,CC(C)(C)OC(=O)N1CCCC1c1ncc(-c2ccc(-c3nc4cc(-c5cnc([C@@H]6CCCN6C(=O)OCc6ccccc6)[nH]5)ccc4s3)cc2)[nH]1 (stereo partly drawn) [compound 250],10 to 999
23,CNC(=O)N[C@@H](C(=O)N1CCC[C@H]1c1ncc(-c2ccc3nc(-c4ccc(-c5cnc([C@@H]6CCCN6C(=O)[C@@H](NC(=O)OC)C(C)C)[nH]5)cc4)oc3c2)[nH]1)c1ccccc1 [compound 251],< 1
24,CCNC(=O)N[C@@H](C(=O)N1CCC[C@H]1c1ncc(-c2ccc3nc(-c4ccc(-c5cnc([C@@H]6CCCN6C(=O)[C@@H](NC(=O)OC)C(C)C)[nH]5)cc4)oc3c2)[nH]1)c1ccccc1 [compound 252],< 1
25,COC(=O)N[C@H](C(=O)N1CCC[C@H]1c1ncc(-c2ccc(-c3nc4ccc(-c5cnc([C@@H]6CCCN6C(=O)[C@@H](NC(=O)OC)[C@@H](C)OC)[nH]5)cc4o3)cc2)[nH]1)C(C)C [compound 253],< 1
26,COC(=O)N[C@H](C(=O)N1CCC[C@H]1c1ncc(-c2ccc3nc(-c4ccc(-c5cnc([C@@H]6CCCN6C(=O)[C@H](NC(=O)OC(C)(C)C)c6ccccc6)[nH]5)cc4)oc3c2)[nH]1)C(C)C [compound 254],< 1
27,COC(=O)N[C@H](C(=O)N1CCC[C@H]1c1ncc(-c2ccc3nc(-c4ccc(-c5cnc([C@@H]6CCCN6C(=O)[C@H](NC(=O)OC)c6ccccc6)[nH]5)cc4)oc3c2)[nH]1)C(C)C [compound 255],< 1
28,CNC(=O)N[C@@H](C(=O)N1CCC[C@H]1c1ncc(-c2ccc(-c3nc4ccc(-c5cnc([C@@H]6CCCN6C(=O)[C@@H](NC(=O)OC)C(C)C)[nH]5)cc4o3)cc2)[nH]1)c1ccccc1 [compound 256],< 1
29,CCNC(=O)N[C@@H](C(=O)N1CCC[C@H]1c1ncc(-c2ccc(-c3nc4ccc(-c5cnc([C@@H]6CCCN6C(=O)[C@@H](NC(=O)OC)C(C)C)[nH]5)cc4o3)cc2)[nH]1)c1ccccc1 [compound 257],< 1
30,COC(=O)N[C@H](C(=O)N1CCC[C@H]1c1ncc(-c2ccc(-c3ccc4nc(-c5cnc([C@@H]6CCCN6C(=O)[C@@H](NC(=O)OC)C(C)C)[nH]5)sc4c3)cc2)[nH]1)C(C)C [compound 258],< 1

# — patent publication US8618151B2, “Inhibitors of HCV NS5A” (Presidio Pharmaceuticals, Inc., priority 2008, dated 2013)
